One data set has as its target T1, MATE1 (Homo sapiens, UniProt Q96FL8).
T1 sequence (Q96FL8 1-570): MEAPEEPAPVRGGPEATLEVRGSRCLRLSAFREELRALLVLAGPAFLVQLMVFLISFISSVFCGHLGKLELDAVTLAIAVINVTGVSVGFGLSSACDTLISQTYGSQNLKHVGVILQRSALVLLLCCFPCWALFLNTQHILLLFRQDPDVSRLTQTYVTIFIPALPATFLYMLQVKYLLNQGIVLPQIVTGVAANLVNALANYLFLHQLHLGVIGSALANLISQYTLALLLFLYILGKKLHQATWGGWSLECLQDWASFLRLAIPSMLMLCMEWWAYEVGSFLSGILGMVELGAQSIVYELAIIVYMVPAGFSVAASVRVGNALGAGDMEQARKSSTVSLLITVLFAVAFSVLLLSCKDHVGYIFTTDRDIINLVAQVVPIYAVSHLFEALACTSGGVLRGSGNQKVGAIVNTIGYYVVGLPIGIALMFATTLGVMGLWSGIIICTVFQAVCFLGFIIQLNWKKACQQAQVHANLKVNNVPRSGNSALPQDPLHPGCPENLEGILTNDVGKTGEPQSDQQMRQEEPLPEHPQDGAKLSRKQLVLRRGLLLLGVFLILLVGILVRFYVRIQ
The experiment in a line: Uptake transporter inhibition assay, MATE1 (metformin).

Another data set has as its system rat red blood cells. The experiment in a line: Hemolysis study in rat blood. The format is cell-based. The note with it: 60 min, 37° C.; for % RBC lysis (hemolytic potential): test articles 25, 50, 100 μM, amphotericin B 1, 10, 30, 100 μM. On the procedure: FIG. 6A. […] Compound I-19 in rat blood. Red blood cells were isolated from whole blood and resuspended in PBS. […] (final concentrations 25, 50, and 100 μM) and the mixtures were incubated at 37° C. for 60 min. After the incubation, the samples were centrifuged and the absorbance of 100 μL of supernatant was read at 410 nm. % RBC lysis is expressed relative to 100% lysis control. Values represent mean+SEM of n=3 separate experiments.
FIG. 6B. […] Compound I-19 in rat blood. Red blood cells were isolated from whole blood and resuspended in PBS. […] (final concentrations 25, 50, and 100 μM) and the mixtures were incubated at 37° C. for 60 min. After the incubation, the samples were centrifuged and the absorbance of 100 μl of supernatant was read at 410 nm. % RBC lysis is expressed relative to 100% lysis control. Values represent mean+SEM of n=3 separate experiments.
FIG. 6C. Hemolytic Potential of Amphotericin B in rat blood (positive assay control). Red blood cells were isolated from whole blood and resuspended in PBS. 190 μL of diluted RBC suspension and 10 μL of amphotericin B solutions were mixed at 0 min. (final concentrations 1, 10, 30, and 100 μM) and the mixtures were incubated at 37° C. for 60 min. After the incubation, the samples were centrifuged and the absorbance of 100 μL of supernatant was read at 410 nm. % RBC lysis is expressed relative to 100% lysis control. Values represent mean+SEM of n=3 separate experiments.
To a clear 96-well V-bottom polystyrene plate, the test articles (10 μL) and the diluted RBCs (190 μL) from human or rat blood were mixed for final concentrations of 25, 50, and 100 μM. The reaction mixture was incubated at 37° C. for 60 min. Following the exposure period, the plates were centrifuged. After centrifugation, 70 μL of supernatant (without disturbing the pellet) was transferred to a clean and clear polystyrene flat bottomed 96-well plate and the absorbance of the sample at a single wavelength was measured using a BioTech Synergy H1 Plate Reader at a wavelength of 410 nm. The positive control for this assay was amphotericin B test at concentrations of 1, 10, 30, and 100 μM.

The mark [1] stands for this setting: 0.04 μM nominal, IC50 determination.
The mark [2] stands for this setting: 0.12 μM nominal, IC50 determination.
The mark [3] stands for this setting: 1.11 μM nominal, IC50 determination.
Setting [4] is: 10.00 μM nominal, IC50 determination.
The mark [5] stands for this setting: 30.00 μM nominal, IC50 determination.
[6] abbreviates: 0.14 μM nominal, 0.08 μM NSB corrected, follow-up assay.
Setting [7] is: 1.24 μM nominal, 0.79 μM NSB corrected, follow-up assay.
Setting [8] is: 10.00 μM nominal, 6.50 μM NSB corrected.
The mark [9] stands for this setting: 11.11 μM nominal, 6.11 μM NSB corrected, follow-up assay.
Setting [10] is: 33.33 μM nominal, 20.33 μM NSB corrected, follow-up assay.
Setting [11] is: 100.00 μM nominal, 67.00 μM NSB corrected.
Setting [12] is: 100.00 μM nominal, […] NSB corrected, follow-up assay.
Where [13] appears, read: […] nominal, 2.37 μM NSB corrected, follow-up assay.

Like-named read-outs stand apart in the source and are kept apart here.

In general, IC50 refers to the midpoint of a concentration-inhibition curve. The low end stands for inhibition by little substance, the high end for a need for much substance. The inhibition is the change of the read-out against control, counted positive when it falls.

Procedure for MATE1: Uptake experiments were performed using HEK293 cells stably expressing the respective uptake transporters.
Cells were cultured at 37° C. in a humidified atmosphere containing 5% CO2 and were plated onto standard 96-well tissue culture plates.
Before the experiment, the medium was removed, and the cells were washed twice with 100 μL of pre-warmed (37° C.) assay buffer listed in Table 15. The cells were pre-incubated at 37° C. for 30 minutes in assay buffer containing the test article at appropriate concentrations (Table 16), appropriate solvents for solvent controls and the reference inhibitor for reference inhibitor wells. After the pre-incubation step solutions were removed. Uptake experiments were performed at 37° C. in 50 μL of assay buffer containing the probe substrate and the test article or solvent and controls.
After the experiment, cells were washed twice with 100 μL of appropriate cold buffer and lysed with 150 μL scintillation cocktail. Radiolabeled probe substrate transport was determined by liquid scintillation counting.
Uptake of the probe substrate in control cells provided background activity values for all data points.

For the molecule `OC1(c2ccc(Cl)cc2)c2ccccc2C2=NCCN21` (stereo not drawn) [Compound A, 5-(4-chlorophenyl)-2,3-dihydroimidazo[1,2-b]isoindol-5-ol, reference compound], at MATE1, 3.87 µM corresponded to half-maximal inhibition (IC50). The “Relative transporter specific accumulation” value at MATE1 (setting [1]) is 106.48 ± 4.34 % of control; at MATE1 (setting [2]), 92.92 ± 5.23 % of control; at MATE1 (setting [3]), 69.86 ± 2.64 % of control; at MATE1 (3.00 μM nominal), 54.89 ± 4.37 % of control; at MATE1 (setting [4]), 38.96 ± 1.63 % of control; at MATE1 (30.00 μM nominal), 20.18 ± 1.49 % of control. For the same molecule, the “Relative transporter specific accumulation” value at MATE1 (setting [5]) was 20.65 ± 0.69 % of control. Besides, the Transporter specific accumulation on MATE1 (setting [1]) came to 471.00 ± 14.24 cpm; on MATE1 (setting [2]) it was 411.00 ± 20.23 cpm; at MATE1 (setting [3]), 309.00 ± 8.08 cpm; on MATE1 (3.00 μM nominal) it was 181.33 ± 14.06 cpm; on MATE1 (setting [4]) it was 172.33 ± 5.44 cpm; at MATE1 (30.00 μM nominal), 66.67 ± 4.78 cpm. This molecule registered a Transporter specific accumulation on MATE1 (setting [5]) of 91.33 ± 1.76 cpm. Besides, the inhibition at 10 µM on MATE1 (human, Maximum % inhibition, MATE1, HEK293 cells, metformin (10 μM), NIO: no inhibition observed) worked out at 79%; at MATE1 (human, Relative inhibition, 10.00 μM nominal, IC50 determination) it was 61%. The inhibition at 0.04 μM against MATE1 (human, Relative inhibition, 0.04 μM nominal, IC50 determination) was -6%. At MATE1 (human, Relative inhibition, 0.12 μM nominal, IC50 determination), the inhibition at 0.12 μM was 7%. Moreover, at MATE1 (human, Relative inhibition, 1.11 μM nominal, IC50 determination), the inhibition at 1.11 μM amounted to 30%. Also, on MATE1 (human, Relative inhibition, 3.00 μM nominal), the inhibition at 3 μM was 45%. The inhibition at 30 μM against MATE1 (human, Relative inhibition, 30.00 μM nominal) was determined as 80%; against MATE1 (human, Relative inhibition, 30.00 μM nominal, IC50 determination) it was 79%.
`COCCOC1(c2ccc(Cl)cc2)c2ccccc2C2=NCCN21` (stereo not drawn) [Compound I-4]: in the data set with rat red blood cells, the “EC50 (% RBC lysis)” value is on record as “outside the concentration range tested” and the “% RBC lysis (hemolytic potential)” value was “no detectable hemolysis”.
For `Clc1ccc(C2(OCC3OCCO3)c3ccccc3C3=NCCN32)cc1` (stereo not drawn) [Compound I-19], in the data set with rat red blood cells, the “EC50 (% RBC lysis)” value is on record as “outside the concentration range tested”. For the same molecule, in the data set on rat red blood cells, the “% RBC lysis (hemolytic potential)” value is recorded as “no detectable hemolysis”. For the same molecule, the Relative inhibition on MATE1 (setting [6]) was found to be 5%; on MATE1 (setting [7]), 19%; on MATE1 (setting [8]), 54%; on MATE1 (setting [9]), 63%; at MATE1 (setting [10]), 88%; on MATE1 (setting [11]), 101%. The values for the Relative inhibition at MATE1 (setting [12]) and at MATE1 (setting [13]) were 104% and 30%, respectively. In addition, the “Relative transporter specific accumulation” value is listed as 95.19 ± 6.24 % of control at MATE1 (setting [6]); 81.36 ± 3.96 % of control at MATE1 (setting [7]); 45.62 ± 4.36 % of control at MATE1 (setting [8]); 37.02 ± 4.79 % of control on MATE1 (setting [9]); 11.73 ± 1.78 % of control on MATE1 (setting [10]); −1.49 ± 0.63 % of control on MATE1 (setting [11]). Besides, the “Relative transporter specific accumulation” value was −4.47 ± 0.42 % of control on MATE1 (setting [12]) and 70.03 ± 4.41 % of control on MATE1 (setting [13]). In addition, the Transporter specific accumulation is 468.00 ± 24.27 cpm on MATE1 (setting [6]); 400.00 ± 11.06 cpm on MATE1 (setting [7]); 173.67 ± 6.31 cpm on MATE1 (setting [8]); 182.00 ± 22.40 cpm on MATE1 (setting [9]); 57.67 ± 8.46 cpm on MATE1 (setting [10]); −5.67 ± 2.36 cpm at MATE1 (setting [11]). In addition, the Transporter specific accumulation on MATE1 (setting [12]) was −22.00 ± 1.89 cpm; on MATE1 (setting [13]), 344.33 ± 16.76 cpm. In addition, on MATE1 (2-concentration assay, Compound I-19 100 μM, Compound A 30 μM, Compound B 50 μM), the “maximum inhibition of MATE1-mediated metformin accumulation” value was “completely inhibited”. Besides, the Maximum % inhibition at MATE1 (MATE1, HEK293 cells, metformin (10 μM), NIO: no inhibition observed) is given as 104%. Besides, at MATE1 (follow-up assay, NSB-corrected concentrations for Compound I-19), half-maximal inhibition (IC50) was put at 8.86 µM.
